# In PubChem BioAssay (NCI):
#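 Where inhibition never reached the appropriate level, the endpoint shown equals the highest concentration tested. Otherwise, values were interpolated linearly from a five-concentration, 48-hour dose response in 96-well plates. GI50 is the concentration that inhibits growth by half. Definition used: TGI = concentration required for complete inhibition of growth.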
# What was measured:
# Test in all cases: growth of human tumour cells (NCI), 48 h
# CAKI-1 renal = system: CAKI-1 renal
# CCRF-CEM leukemia = system: CCRF-CEM leukemia
# TK-10 renal = system: TK-10 renal
# MOLT-4 leukemia = system: MOLT-4 leukemia
# HOP-92 NSCLC = system: HOP-92 NSCLC
# SK-MEL-28 melanoma = system: SK-MEL-28 melanoma
# K-562 leukemia = system: K-562 leukemia
# SW-620 colon = system: SW-620 colon
# MDA-N = system: MDA-N
# NCI-H522 lung = system: NCI-H522 lung
# UACC-62 melanoma = system: UACC-62 melanoma
# SN12C renal = system: SN12C renal
# NCI-H460 lung = system: NCI-H460 lung
# U251 CNS = system: U251 CNS
# OVCAR-8 ovarian = system: OVCAR-8 ovarian
# NCI-H23 lung = system: NCI-H23 lung
# OVCAR-5 ovarian = system: OVCAR-5 ovarian
# MDA-MB-231 breast = system: MDA-MB-231 breast
# 786-0 renal = system: 786-0 renal
# HCT-116 colon = system: HCT-116 colon
# MCF7 breast = system: MCF7 breast
# ACHN renal = system: ACHN renal
# NCI-H226 lung = system: NCI-H226 lung
# DU-145 prostate = system: DU-145 prostate
# COLO 205 colon = system: COLO 205 colon
# HCC-2998 colon = system: HCC-2998 colon
# SF-268 CNS = system: SF-268 CNS
# NCI/ADR-RES ovarian = system: NCI/ADR-RES ovarian
# SK-OV-3 ovarian = system: SK-OV-3 ovarian
# HT29 colon = system: HT29 colon
# UACC-257 melanoma = system: UACC-257 melanoma
# RPMI-8226 leukemia = system: RPMI-8226 leukemia
# HS 578T breast = system: HS 578T breast
# OVCAR-4 ovarian = system: OVCAR-4 ovarian
# KM12 colon = system: KM12 colon
# EKVX NSCLC = system: EKVX NSCLC
# SNB-75 CNS = system: SNB-75 CNS
# SK-MEL-5 melanoma = system: SK-MEL-5 melanoma
# MDA-MB-435 = system: MDA-MB-435
# LOX IMVI melanoma = system: LOX IMVI melanoma
# IGROV1 ovarian = system: IGROV1 ovarian
# SNB-19 CNS = system: SNB-19 CNS
# MALME-3M melanoma = system: MALME-3M melanoma
# SR leukemia = system: SR leukemia
# A549 NSCLC = system: A549 NSCLC
# RXF 393 renal = system: RXF 393 renal
# A498 renal = system: A498 renal
# UO-31 renal = system: UO-31 renal
# OVCAR-3 ovarian = system: OVCAR-3 ovarian
# BT-549 breast = system: BT-549 breast
# HOP-62 NSCLC = system: HOP-62 NSCLC
# T-47D breast = system: T-47D breast
# PC-3 prostate = system: PC-3 prostate
# SF-295 CNS = system: SF-295 CNS
# M14 melanoma = system: M14 melanoma
# SK-MEL-2 melanoma = system: SK-MEL-2 melanoma
# HCT-15 colon = system: HCT-15 colon
# SF-539 CNS = system: SF-539 CNS
# KM20L2 colon = system: KM20L2 colon
# HL-60(TB) leukemia = system: HL-60(TB) leukemia
compound,measurement,setting,value
CC1NC(=O)c2c(-c3ccccc3)nn(-c3ccccc3)c2NC1=O (stereo not drawn),TGI,CAKI-1 renal,> 100 µM
same,TGI,CCRF-CEM leukemia,> 100 µM
same,TGI,TK-10 renal,> 100 µM
same,TGI,MOLT-4 leukemia,> 100 µM
same,TGI,HOP-92 NSCLC,> 100 µM
same,TGI,SK-MEL-28 melanoma,> 100 µM
same,TGI,K-562 leukemia,> 100 µM
same,TGI,SW-620 colon,> 100 µM
same,TGI,MDA-N,> 100 µM
same,TGI,NCI-H522 lung,> 100 µM
same,TGI,UACC-62 melanoma,> 100 µM
same,TGI,SN12C renal,> 100 µM
same,TGI,NCI-H460 lung,> 100 µM
same,TGI,U251 CNS,> 100 µM
same,TGI,OVCAR-8 ovarian,> 100 µM
same,TGI,NCI-H23 lung,> 100 µM
same,TGI,OVCAR-5 ovarian,> 100 µM
same,TGI,MDA-MB-231 breast,> 100 µM
same,TGI,786-0 renal,> 100 µM
same,TGI,HCT-116 colon,> 100 µM
same,TGI,MCF7 breast,> 100 µM
same,TGI,ACHN renal,> 100 µM
same,TGI,NCI-H226 lung,> 100 µM
same,TGI,DU-145 prostate,> 100 µM
same,TGI,COLO 205 colon,> 100 µM
same,TGI,HCC-2998 colon,> 100 µM
same,TGI,SF-268 CNS,> 100 µM
same,TGI,NCI/ADR-RES ovarian,> 100 µM
same,TGI,SK-OV-3 ovarian,> 100 µM
same,TGI,HT29 colon,> 100 µM
same,TGI,UACC-257 melanoma,> 100 µM
same,TGI,RPMI-8226 leukemia,> 100 µM
same,TGI,HS 578T breast,> 100 µM
same,TGI,OVCAR-4 ovarian,> 100 µM
same,TGI,KM12 colon,> 100 µM
same,TGI,EKVX NSCLC,> 100 µM
same,TGI,SNB-75 CNS,> 100 µM
same,TGI,SK-MEL-5 melanoma,> 100 µM
same,TGI,MDA-MB-435,> 100 µM
same,TGI,LOX IMVI melanoma,> 100 µM
same,TGI,IGROV1 ovarian,> 100 µM
same,TGI,SNB-19 CNS,> 100 µM
same,TGI,MALME-3M melanoma,> 100 µM
same,TGI,SR leukemia,> 100 µM
same,TGI,A549 NSCLC,> 100 µM
same,TGI,RXF 393 renal,> 100 µM
same,TGI,A498 renal,> 100 µM
same,TGI,UO-31 renal,> 100 µM
same,TGI,OVCAR-3 ovarian,> 100 µM
same,TGI,BT-549 breast,> 100 µM
same,TGI,HOP-62 NSCLC,> 100 µM
same,TGI,T-47D breast,> 100 µM
same,TGI,PC-3 prostate,> 100 µM
same,TGI,SF-295 CNS,> 100 µM
same,TGI,M14 melanoma,> 100 µM
same,TGI,SK-MEL-2 melanoma,> 100 µM
same,TGI,HCT-15 colon,> 100 µM
O=C([CH-]C(=O)c1ccccc1)c1ccccc1.O=C([CH-]C(=O)c1ccccc1)c1ccccc1.[CH2-]CCC.[CH2-]CCC.[Sn+4],GI50,CAKI-1 renal,67 nM
same,TGI,CAKI-1 renal,0.462 µM
same,GI50,TK-10 renal,380 nM
same,TGI,TK-10 renal,1.11 µM
same,GI50,MOLT-4 leukemia,253 nM
same,TGI,MOLT-4 leukemia,0.754 µM
same,GI50,K-562 leukemia,150 nM
same,TGI,K-562 leukemia,0.746 µM
same,GI50,SW-620 colon,133 nM
same,TGI,SW-620 colon,0.325 µM
same,GI50,NCI-H522 lung,29.3 nM
same,TGI,NCI-H522 lung,0.13 µM
same,GI50,UACC-62 melanoma,558 nM
same,TGI,UACC-62 melanoma,1.83 µM
same,GI50,SN12C renal,509 nM
same,TGI,SN12C renal,1.75 µM
same,GI50,NCI-H460 lung,1760 nM
same,TGI,NCI-H460 lung,4.14 µM
same,GI50,U251 CNS,450 nM
same,TGI,U251 CNS,1.56 µM
same,GI50,OVCAR-8 ovarian,939 nM
same,TGI,OVCAR-8 ovarian,2.46 µM
same,GI50,OVCAR-5 ovarian,2060 nM
same,TGI,OVCAR-5 ovarian,3.51 µM
same,GI50,SF-539 CNS,587 nM
same,TGI,SF-539 CNS,1940 nM
same,GI50,786-0 renal,313 nM
same,TGI,786-0 renal,1.35 µM
same,GI50,KM20L2 colon,1570 nM
same,TGI,KM20L2 colon,3.11 µM
same,GI50,HCT-116 colon,917 nM
same,TGI,HCT-116 colon,2.28 µM
same,GI50,ACHN renal,457 nM
same,TGI,ACHN renal,1.6 µM
same,GI50,NCI-H226 lung,260 nM
same,TGI,NCI-H226 lung,0.938 µM
same,GI50,COLO 205 colon,310 nM
same,TGI,COLO 205 colon,1.23 µM
same,GI50,HCC-2998 colon,519 nM
same,TGI,HCC-2998 colon,1.92 µM
same,GI50,SF-268 CNS,458 nM
same,TGI,SF-268 CNS,1.86 µM
same,GI50,HL-60(TB) leukemia,169 nM
same,TGI,HL-60(TB) leukemia,0.606 µM
same,GI50,RPMI-8226 leukemia,110 nM
same,TGI,RPMI-8226 leukemia,0.334 µM
same,GI50,KM12 colon,728 nM
same,TGI,KM12 colon,2.28 µM
same,GI50,EKVX NSCLC,1170 nM
same,TGI,EKVX NSCLC,2.7 µM
same,GI50,SNB-75 CNS,1040 nM
same,TGI,SNB-75 CNS,2.29 µM
same,GI50,SK-MEL-5 melanoma,250 nM
same,TGI,SK-MEL-5 melanoma,1.21 µM
same,GI50,LOX IMVI melanoma,405 nM
same,TGI,LOX IMVI melanoma,1.59 µM
same,GI50,IGROV1 ovarian,1210 nM
same,TGI,IGROV1 ovarian,2.79 µM
same,GI50,SNB-19 CNS,441 nM
same,TGI,SNB-19 CNS,1.67 µM
same,GI50,MALME-3M melanoma,271 nM
same,TGI,MALME-3M melanoma,1.35 µM
same,GI50,A549 NSCLC,1820 nM
same,TGI,A549 NSCLC,4.12 µM
same,GI50,RXF 393 renal,128 nM
same,TGI,RXF 393 renal,0.416 µM
same,GI50,A498 renal,369 nM
same,TGI,A498 renal,1.5 µM
same,GI50,UO-31 renal,1080 nM
same,TGI,UO-31 renal,2.29 µM
same,GI50,OVCAR-3 ovarian,758 nM
same,TGI,OVCAR-3 ovarian,2.13 µM
same,GI50,HOP-62 NSCLC,1950 nM
same,TGI,HOP-62 NSCLC,3.41 µM
same,GI50,SF-295 CNS,1120 nM
same,TGI,SF-295 CNS,2.35 µM
same,GI50,M14 melanoma,394 nM
same,TGI,M14 melanoma,1.59 µM
same,GI50,SK-MEL-2 melanoma,223 nM
same,TGI,SK-MEL-2 melanoma,0.883 µM
same,GI50,HCT-15 colon,636 nM
same,TGI,HCT-15 colon,2.14 µM
CCOC(=O)Nc1nc(-c2ccccc2)c(C)s1,TGI,CAKI-1 renal,> 100 µM
same,TGI,CCRF-CEM leukemia,> 100 µM
same,TGI,TK-10 renal,> 100 µM
same,TGI,MOLT-4 leukemia,45.5 µM
same,TGI,HOP-92 NSCLC,90.5 µM
same,TGI,SK-MEL-28 melanoma,> 100 µM
same,TGI,K-562 leukemia,> 100 µM
same,TGI,SW-620 colon,> 100 µM
same,TGI,MDA-N,> 100 µM
same,TGI,NCI-H522 lung,> 100 µM
same,TGI,UACC-62 melanoma,> 100 µM
same,TGI,SN12C renal,> 100 µM
same,TGI,NCI-H460 lung,> 100 µM
same,TGI,U251 CNS,> 100 µM
same,TGI,OVCAR-8 ovarian,> 100 µM
same,TGI,NCI-H23 lung,> 100 µM
same,TGI,OVCAR-5 ovarian,> 100 µM
same,TGI,SF-539 CNS,> 100000 nM
same,TGI,MDA-MB-231 breast,> 100 µM
same,TGI,786-0 renal,> 100 µM
same,TGI,HCT-116 colon,> 100 µM
same,TGI,MCF7 breast,> 100 µM
same,TGI,ACHN renal,> 100 µM
same,TGI,NCI-H226 lung,> 100 µM
same,TGI,DU-145 prostate,> 100 µM
same,TGI,COLO 205 colon,> 100 µM
same,TGI,HCC-2998 colon,> 100 µM
same,TGI,SF-268 CNS,> 100 µM
same,TGI,NCI/ADR-RES ovarian,> 100 µM
same,TGI,HL-60(TB) leukemia,90.5 µM
same,TGI,SK-OV-3 ovarian,> 100 µM
same,TGI,HT29 colon,> 100 µM
same,TGI,UACC-257 melanoma,> 100 µM
same,TGI,RPMI-8226 leukemia,> 100 µM
same,TGI,HS 578T breast,> 100 µM
same,TGI,OVCAR-4 ovarian,> 100 µM
same,TGI,KM12 colon,> 100 µM
same,TGI,EKVX NSCLC,> 100 µM
same,TGI,SNB-75 CNS,> 100 µM
same,TGI,SK-MEL-5 melanoma,> 100 µM
same,TGI,MDA-MB-435,> 100 µM
same,TGI,LOX IMVI melanoma,> 100 µM
same,TGI,IGROV1 ovarian,> 100 µM
same,TGI,SNB-19 CNS,> 100 µM
same,TGI,MALME-3M melanoma,> 100 µM
same,TGI,SR leukemia,> 100 µM
same,TGI,A549 NSCLC,> 100 µM
same,TGI,RXF 393 renal,> 100 µM
same,TGI,A498 renal,> 100 µM
same,TGI,UO-31 renal,> 100 µM
same,TGI,OVCAR-3 ovarian,> 100 µM
same,TGI,BT-549 breast,> 100 µM
same,TGI,HOP-62 NSCLC,> 100 µM
same,TGI,T-47D breast,> 100 µM
same,TGI,PC-3 prostate,> 100 µM
same,TGI,SF-295 CNS,> 100 µM
same,TGI,M14 melanoma,> 100 µM
same,TGI,SK-MEL-2 melanoma,> 100 µM
same,TGI,HCT-15 colon,> 100 µM
